Data set [1] concerns Plasmodium berghei. Description: Antimalarial activity against Plasmodium berghei infected in sc dosed mouse assessed as increase in mean survival time. In kind it is functional, organism-based.
Another data set concerns Mus musculus. Description: Toxicity in sc dosed mouse measured 2 to 5 days post-infection. In kind it is organism-based. The conditions noted are these: in vivo.
The subject of data set [2] is Plasmodium berghei. Description: Antimalarial activity against Plasmodium berghei infected in mouse assessed as cure rate at 640 mg/kg, sc measured on day 60 post-infection. In kind it is functional, organism-based. On the set-up: dose 640 mg/kg.
Data set [3] relates to Plasmodium berghei. Description: Antimalarial activity against Plasmodium berghei infected in mouse assessed as increase in mean survival time at 320 mg/kg, sc. In kind it is functional. The conditions noted are these: route subcutaneous.
For data set [4], the system named is Plasmodium berghei. Description: Antimalarial activity against Plasmodium berghei infected in mouse assessed as increase in mean survival time at 80 mg/kg, sc. In kind it is functional. The conditions noted are these: route subcutaneous.
Data set [5] relates to Plasmodium berghei. Description: Antimalarial activity against Plasmodium berghei infected in mouse assessed as increase in mean survival time at 160 mg/kg, sc. In kind it is functional. The settings on record: route subcutaneous.
For data set [6], the system named is Plasmodium berghei. Description: Antimalarial activity against Plasmodium berghei infected in mouse assessed as increase in mean survival time at 40 mg/kg, sc. In kind it is functional. The conditions noted are these: route subcutaneous.

SMILES strings stand for the structures. The source made the active and inactive calls. The rule behind the calls is not given here.

`CN1CCCCC1C(O)c1cc2ccccc2c2cc(Br)ccc12.Cl` (stereo not drawn): the outcome in the data set with Plasmodium berghei [1] was Active. Moreover, the Activity entry in the data set on Mus musculus was “Toxic”.

Turning to `OC(c1cc(C(F)(F)F)nc2c(C(F)(F)F)cccc12)C1CCCNC1` (single isomer, unassigned; diastereomer 2), the result in the data set with Plasmodium berghei [2] was inactive.

Regarding `OC(c1cc(C(F)(F)F)nc2c(C(F)(F)F)cccc12)C1CCCNC1` (single isomer, unassigned; diastereomer 1), the outcome in the data set with Plasmodium berghei [2] was Active.

For the molecule `O=C(O)/C=C/C(=O)O.OC(c1cc(C(F)(F)F)nc2c(C(F)(F)F)cccc12)C1CCCNC1` (single isomer, unassigned; diastereomer 1), the MST with Plasmodium berghei [3] amounted to 15.2 days; with Plasmodium berghei [4], 10.1 days; in the data set with Plasmodium berghei [5] it was 11.2 days; with Plasmodium berghei [6] it was 5.9 days.

Values taken from ChEMBL document CHEMBL3272062, “Difference in antimalarial activity between certain amino alcohol diastereomers” (J Med Chem, 1976).
